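Exposure lasted 48 hours, with cells grown in 96-well plates and compounds tested at five concentrations. GI50 marks 50% less growth.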 The source made the active and inactive calls. Cut-off read from the data, not from the text of the source: active = GI50 up to about 1.1 µM and inactive = higher.
Tests used:
Test in all cases: growth of human tumour cells (NCI), 48 h
[1] = system: NCI-H460
[2] = system: M14
[3] = system: M19-MEL
[4] = system: SW-620
[5] = system: OVCAR-8
[6] = system: OVCAR-5
[7] = system: LXFL 529
[8] = system: HOP-92
[9] = system: SK-OV-3
[10] = system: SK-MEL-2
[11] = system: KM-20L2
[12] = system: NCI-H23
[13] = system: CCRF-CEM
[14] = system: K562
[15] = system: EKVX
[16] = system: SNB-78

Measured: GI50

O=C1c2ccccc2C(=O)N1CCCOCc1cnc(O)nc1O
inactive: [1] > 100 µM | [2] > 100 µM | [3] > 100 µM | [4] > 100 µM | [5] > 100 µM | [6] > 100 µM | [7] > 100 µM | [8] > 100 µM | [9] > 100 µM | [10] > 100 µM | [11] > 100 µM | [12] > 100 µM | [13] > 100 µM | [14] > 100 µM | [15] > 100 µM

O=C1C(=O)N(c2ccc(Cl)cc2Cl)C(=O)C(=O)C1c1nc2ccccc2o1
inactive: [1] > 100 µM | [2] > 100 µM | [3] > 100 µM | [4] > 100 µM | [16] > 100 µM | [5] > 100 µM | [6] > 100 µM | [7] > 100 µM | [8] > 100 µM | [9] > 100 µM | [10] > 100 µM | [11] > 100 µM | [12] > 100 µM | [13] 93.8 µM | [14] > 100 µM | [15] > 100 µM

CCOC(=O)c1ccc(/N=N\c2ccc(N(CCC#N)CCC#N)cc2C)cc1
inactive: [2] > 100 µM | [3] > 100 µM | [4] > 100 µM | [16] > 100 µM | [5] > 100 µM | [6] > 100 µM | [7] 35.9 µM | [9] > 100 µM | [10] > 100 µM | [12] 95.1 µM | [13] > 100 µM | [14] > 100 µM | [15] > 100 µM

CC1=NN(c2ccccc2)C(=O)C1/N=N/c1ccc(Br)c(C)c1 (configuration not stated)
inactive: [1] > 100 µM | [2] > 100 µM | [3] > 100 µM | [4] > 100 µM | [16] > 100 µM | [5] > 100 µM | [6] > 100 µM | [7] > 100 µM | [8] > 100 µM | [9] > 100 µM | [10] > 100 µM | [11] > 100 µM | [12] > 100 µM | [13] 55.7 µM | [14] > 100 µM | [15] > 100 µM

CCOC(=O)c1cnc2c(ccc3ncccc32)c1OCC
inactive: [1] > 100 µM | [2] > 100 µM | [3] > 100 µM | [4] > 100 µM | [16] > 100 µM | [5] > 100 µM | [6] > 100 µM | [7] > 100 µM | [9] > 100 µM | [10] > 100 µM | [11] > 100 µM | [12] > 100 µM | [13] 59.6 µM | [14] > 100 µM | [15] 84.3 µM

O=C1NC2C(CCO)CC=C[C@H]2c2cc3c(cc21)OCO3 (some centres not stated)
inactive: [1] > 100 µM | [2] > 100 µM | [3] > 100 µM | [4] > 100 µM | [16] > 100 µM | [5] > 100 µM | [7] > 100 µM | [9] > 100 µM | [11] > 100 µM | [12] > 100 µM | [13] > 100 µM | [14] > 100 µM | [15] > 100 µM

C/C(=N/O)C1CC=C(S(=O)(=O)c2ccccc2)C1 (configuration not stated)
inactive: [1] > 100 µM | [2] > 100 µM | [3] > 100 µM | [4] > 100 µM | [5] > 100 µM | [6] > 100 µM | [7] > 100 µM | [8] > 100 µM | [9] > 100 µM | [10] > 100 µM | [11] > 100 µM | [12] > 100 µM | [13] > 100 µM | [14] > 100 µM

CCCC1C(=O)CCc2c(OC)ccc(OC)c21 (configuration not stated)
inactive: [1] > 100 µM | [2] > 100 µM | [3] > 100 µM | [4] > 100 µM | [16] > 100 µM | [5] 92.7 µM | [6] > 100 µM | [7] > 100 µM | [9] > 100 µM | [10] > 100 µM | [11] > 100 µM | [12] > 100 µM | [13] 72.3 µM | [14] 59 µM | [15] > 100 µM

Cc1cc(C)nc(NS(=O)(=O)c2ccc(NC(=O)c3cccc4c(=O)c5ccccc5[nH]c34)cc2)n1
active: [9] 0.18 µM
inactive: [1] 17 µM | [2] 18.9 µM | [4] 23.5 µM | [16] 21.3 µM | [5] 19.2 µM | [6] > 10 µM | [7] 14.3 µM | [8] 20 µM | [10] > 10 µM | [11] 19.5 µM | [12] 17 µM | [13] 13 µM | [14] 18.6 µM | [15] 26.5 µM

O=C1C2=C(CC3C(C2)C3(Br)Br)C(=O)C2=C1CC1C(C2)C1(Br)Br (configuration not stated)
inactive: [1] > 100 µM | [2] > 100 µM | [3] 52.8 µM | [16] > 100 µM | [5] > 100 µM | [6] > 100 µM | [7] > 100 µM | [8] > 100 µM | [9] > 100 µM | [10] > 100 µM | [11] > 100 µM | [12] > 100 µM | [13] 61.9 µM | [14] > 100 µM | [15] > 100 µM

CC(C)(C)NC(=O)C12C3C4C1C1C2C3C41I (configuration not stated)
inactive: [1] > 100 µM | [3] > 100 µM | [4] > 100 µM | [16] > 100 µM | [5] > 100 µM | [6] > 100 µM | [7] > 100 µM | [8] 84.1 µM | [10] > 100 µM | [11] > 100 µM | [12] > 100 µM | [13] > 100 µM | [14] > 100 µM

CSc1ccc(-c2cn3ccsc3n2)c(O)c1
inactive: [1] 13.6 µM | [2] > 59.6 µM | [4] 36.1 µM | [16] 42.3 µM | [5] > 89.9 µM | [6] > 92.9 µM | [7] > 54.5 µM | [8] 47.3 µM | [9] > 82.4 µM | [10] > 85.3 µM | [11] > 65.2 µM | [12] 48.3 µM | [13] 16.1 µM | [14] 26.4 µM | [15] > 81.3 µM

[N-]=[N+]=Nc1ccccc1Oc1ccccc1
inactive: [1] > 100 µM | [2] > 100 µM | [3] > 100 µM | [4] > 100 µM | [16] > 100 µM | [5] > 100 µM | [6] > 100 µM | [7] > 100 µM | [9] > 100 µM | [10] > 100 µM | [11] > 100 µM | [12] > 100 µM | [14] > 100 µM | [15] > 100 µM

O=C(NCCCN1CCN(CCCNC(=O)Nc2cc(Cl)ccc2Cl)CC1)Nc1cc(Cl)ccc1Cl
inactive: [1] > 100 µM | [2] 27.4 µM | [4] > 100 µM | [16] 90.6 µM | [5] 61.8 µM | [6] > 100 µM | [7] 51.2 µM | [8] 50.6 µM | [9] 97.9 µM | [10] > 100 µM | [11] 28.4 µM | [12] 87.7 µM | [13] > 100 µM | [14] 35.5 µM

CCC(O)CCCCCCCCCCCCCCC(=O)O (configuration not stated)
inactive: [1] > 100 µM | [2] > 100 µM | [3] > 100 µM | [4] > 100 µM | [16] > 100 µM | [5] > 100 µM | [6] > 100 µM | [7] > 100 µM | [8] > 100 µM | [9] > 100 µM | [10] > 100 µM | [12] > 100 µM | [13] > 100 µM | [14] > 100 µM | [15] > 100 µM

CN(C)c1ccc(C(C#N)NNC(=O)Cc2ccccc2)cc1 (configuration not stated)
inactive: [1] > 100 µM | [2] > 100 µM | [3] > 100 µM | [4] > 100 µM | [16] > 100 µM | [5] > 100 µM | [6] > 100 µM | [7] > 100 µM | [8] > 100 µM | [9] > 100 µM | [10] > 100 µM | [11] > 100 µM | [12] > 100 µM | [13] > 100 µM | [14] > 100 µM

CC1=C(c2cc(C(=O)Nc3ccc(Cl)cc3)nc(S)n2)Sc2ccccc2N1
inactive: [1] > 100 µM | [2] > 100 µM | [3] > 100 µM | [4] > 100 µM | [16] > 100 µM | [5] > 100 µM | [6] > 100 µM | [7] > 100 µM | [8] > 100 µM | [9] > 100 µM | [10] > 100 µM | [11] > 100 µM | [12] > 100 µM | [13] > 100 µM | [14] > 100 µM | [15] > 100 µM

CCN(CC)CCCNC(=O)Cc1ccccc1Nc1c(Cl)cccc1Cl
inactive: [2] 2.82 µM | [3] 4.97 µM | [4] 16.8 µM | [16] 15.9 µM | [5] 16.2 µM | [6] 11.4 µM | [7] 7.67 µM | [9] 15.3 µM | [11] 3.81 µM | [12] 17.9 µM | [13] 11.7 µM | [14] 5.6 µM | [15] 13.7 µM

CC(N)C(C)c1ccccc1 (configuration not stated)
inactive: [1] > 100 µM | [2] > 100 µM | [4] > 100 µM | [16] > 100 µM | [5] > 100 µM | [6] > 100 µM | [7] > 100 µM | [8] > 100 µM | [9] > 100 µM | [10] > 100 µM | [11] > 100 µM | [12] > 100 µM | [13] > 100 µM | [14] > 100 µM | [15] > 100 µM
